In brackets after ≈: the same amount, converted by molar mass. Activity calls are given as the source filed them. No cut-off for these calls is given here.
Legend:
Escherichia coli [1] = assay: Antimicrobial activity against AcrAB efflux pump-deficient Escherichia coli DCR39; type: functional
Escherichia coli [2] = assay: Inhibition of GTPase activity of Escherichia coli FtsZ at 100 uM
Escherichia coli [3] = assay: Induction of filamentation in Escherichia coli DCR39 at 5 uM after 15 hrs; type: functional, organism-based

| SMILES | MIC (Escherichia coli [1]) [µM] | inhibition (Escherichia coli [2]) [%] | Activity (Escherichia coli [3]) |
| --- | --- | --- | --- |
| C#Cc1ccc(S(=O)(=O)N[C@@H]2CCN(Cc3ccc(CC(C)C)cc3)C2)cc1 | < 12 |  |  |
| Cc1ccc(F)cc1S(=O)(=O)N[C@@H]1CCN(Cc2cccc3[nH]ccc23)C1 | > 80 | 29.9 |  |
| Cc1ccc(F)cc1S(=O)(=O)N[C@@H]1CCN(Cc2ccc(Oc3ccccc3)cc2)C1 | 20 (≈ 8.81 µg/mL) | 12.3 |  |
| Cc1ccc(F)cc1S(=O)(=O)N[C@@H]1CCN(Cc2ccc3c(c2)OCO3)C1 | > 80 | 14.6 |  |
| C#Cc1ccc(S(=O)(=O)N[C@@H]2CCN(Cc3ccc(N=[N+]=[N-])cc3)C2)cc1 | > 40 |  |  |
| Cc1ccc(F)cc1S(=O)(=O)N[C@@H]1CCN(Cc2ccc(-c3ccccc3)cc2)C1 | < 10 | 9.4 |  |
| CC(C)Cc1ccc(CN2CC[C@@H](NS(=O)(=O)c3cc(Cl)ccc3Cl)C2)cc1 | 10 (≈ 4.41 µg/mL) |  | Active |
| Cc1ccc(F)cc1S(=O)(=O)N[C@@H]1CCN(Cc2ccc(C(=O)c3ccccc3)cc2)C1 | > 80 |  |  |
| Cc1ccc(F)cc1S(=O)(=O)N[C@@H]1CCN(Cc2ccc3[nH]ccc3c2)C1 | > 80 | 24.9 |  |
| Cc1ccc(F)cc1S(=O)(=O)N[C@@H]1CCN(C(=O)c2ccc(OC(C)C)cc2)C1 | > 80 | 31.9 |  |
| Cc1ccc(F)cc1S(=O)(=O)N[C@@H]1CCN(Cc2ccc(C(F)(F)F)cc2)C1 | > 80 | 26.9 |  |
| C#Cc1ccc(S(=O)(=O)N[C@@H]2CCN(Cc3ccc(OC(C)C)c(N=[N+]=[N-])c3)C2)cc1 | > 64 |  |  |
| CC(C)Cc1ccc(CN2CCC[C@@H](CNS(=O)(=O)c3cc(Cl)ccc3Cl)C2)cc1 | 20 (≈ 9.39 µg/mL) |  |  |
| Cc1ccc(F)cc1S(=O)(=O)N[C@@H]1CCN(Cc2ccc(CC(C)C)cc2)C1 | < 10 | 13.7 |  |
| Cc1ccc(F)cc1S(=O)(=O)N[C@@H]1CCN(Cc2ccc(Br)cc2)C1 | > 80 | 31.5 |  |
